Test results reported in patent publication US8299056B2 (Signal Pharmaceuticals, LLC, priority 2008, dated 2012).

These molecules were tested against T1, Syk (Homo sapiens, UniProt P43405) (assay: Syk HTRF assay). Details: IC50 activity level, read-out: Activity Level.
T1 construct: purchased Carna Biosciences
Format: biochemical
In short: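 HTRF kinase assay in HEPES pH 7.6 buffer with MgCl2, DTT and Triton X100; start mix of 87.5 μM ATP and 80 nM biotinylated peptide, 1 h at room temperature. EDTA stop, then Eu-anti-phosphotyrosine/streptavidin-DyLight 647 detection, read as 665/615 nm emission ratio.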

First: OC1CC[C@H](Nc2cccc3nc(Nc4ccc(C(F)(F)F)cc4)nn23)C1 (stereo in doubt) [Example 419, (1S,3S)-3-(2-(4-(trifluoromethyl)phenylamino)-[1,2,4]triazolo[1,5-a]pyridin-5-ylamino)cyclopentanol]
Second: O[C@@H]1CCC[C@@H]1Nc1cccc2nc(Nc3ccc(C(F)(F)F)cc3)nn12 [Example 406, (1R,2S)-2-(2-(4-(trifluoromethyl)phenylamino)-[1,2,4]triazolo[1,5-a]pyridin-5-ylamino)cyclopentanol]
The IC50 of the first is lower: 250 to 500 nM for the first, 500 to 1000 nM for the second. The first is the more potent here.

First: CC1(C)C(=O)Nc2cc(Nc3nc4cccc(CC5CCOC5)n4n3)ccc21 (single isomer, unassigned; enantiomer 2) [Example 558, 3,3-dimethyl-6-(5-((tetrahydrofuran-3-yl)methyl)-[1,2,4]triazolo[1,5-a]pyridin-2-ylamino)indolin-2-one (enantiomer 2)]
Second: Cc1n[nH]c2ncc(Nc3nc4cccc(CC5CCOCC5)n4n3)cc12 [Example 544, 3-methyl-N-(5-((tetrahydro-2H-pyran-4-yl)methyl)-[1,2,4]triazolo[1,5-a]pyridin-2-yl)-1H-pyrazolo[3,4-b]pyridin-5-amine]
The IC50 of the first is lower: 0.005 to 250 nM for the first, 500 to 1000 nM for the second. The first is the more potent here.

First: FC(F)(F)c1ccc(Nc2nc3cccc(N[C@@H]4CCCNC4)n3n2)cc1 [Example 468, (R)-N^5-(piperidin-3-yl)-N^2-(4-(trifluoromethyl)phenyl)-[1,2,4]triazolo[1,5-a]pyridin-2,5-diamine]
Second: c1cncc(Nc2nc3cccc(NC4CCCNC4)n3n2)c1 (stereo in doubt) [Example 433, (S)-N^5-(piperidin-3-yl)-N^2-(pyridin-3-yl)-[1,2,4]triazolo[1,5-a]pyridin-2,5-diamine]
The IC50 of the first is higher: 500 to 1000 nM for the first, 0.005 to 250 nM for the second.

Compared with `Cc1noc2cc(Nc3nc4cccc(NC5CCOCC5)n4n3)ccc12` [Example 531, N^2-(3-methylbenzo[d]isoxazol-6-yl)-N^5-(tetrahydro-2H-pyran-4-yl)-[1,2,4]triazolo[1,5-a]pyridine-2,5-diamine], `c1ccc(Nc2nc3cccc(NC4CCNCC4)n3n2)cc1` [Example 523, N^2-phenyl-N^5-(piperidin-4-yl)-[1,2,4]triazolo[1,5-a]pyridine-2,5-diamine] is lower in IC50: 1000 to 10000 nM for the first, 500 to 1000 nM for the second.

First: C[C@@H](CO)Cc1cccc2nc(Nc3ccccc3)nn12 [Example 479, (R)-2-methyl-3-(2-(phenylamino)-[1,2,4]triazolo[1,5-a]pyridin-5-yl)propan-1-ol]
Second: CC(Cc1cccc2nc(Nc3ccccc3)nn12)C(N)=O (stereo in doubt) [Example 461, (S)-2-methyl-3-(2-(phenylamino)-[1,2,4]triazolo[1,5-a]pyridin-5-yl)propanamide]
The IC50 of the first is lower: 500 to 1000 nM for the first, 1000 to 10000 nM for the second.

First: c1ccc(Nc2nc3cccc(Nc4ccccc4)n3n2)cc1 [Example 529, N^2,N^5-diphenyl-[1,2,4]triazolo[1,5-a]pyridine-2,5-diamine]
Second: c1ccc(Nc2nc3cccc(-c4ccccn4)n3n2)cc1 [Example 488, N-phenyl-5-(pyridin-2-yl)-[1,2,4]triazolo[1,5-a]pyridin-2-amine]
The IC50 of the first is lower: 250 to 500 nM for the first, 1000 to 10000 nM for the second.

Compared with `NC(=O)c1cc(-c2cccc3nc(Nc4ccc(F)cc4)nn23)ccn1` [Example 416, 4-(2-(4-fluorophenylamino)-[1,2,4]triazolo[1,5-a]pyridin-5-yl)picolinamide], `Nc1n[nH]c2ccc(-c3cccc4nc(Nc5ccccc5)nn34)cc12` [Example 511, 5-(3-amino-1H-indazol-5-yl)-N-phenyl-[1,2,4]triazolo[1,5-a]pyridin-2-amine] is lower in IC50: 1000 to 10000 nM for the first, 250 to 500 nM for the second.

`NC(=O)c1ccc(Cc2cccc3nc(Nc4ccccc4)nn23)cc1` [Example 452, 4-((2-(phenylamino)-[1,2,4]triazolo[1,5-a]pyridin-5-yl)methyl)benzamide] showed an IC50 of 1000 to 10000 nM.

Same assay, conditions: activity levels A-D, read-out: Activity Level (IC50 in the Syk HTRF assay)

`N#Cc1ccc(Nc2nc3cccc(N[C@H]4CC[C@@H](O)CC4)n3n2)c(F)c1` [Example 341, cis-3-fluoro-4-(5-(4-hydroxycyclohexylamino)-[1,2,4]triazolo[1,5-a]pyridin-2-ylamino)benzonitrile] and `Oc1cccc(Nc2nc3cccc(N[C@H]4CC[C@@H](O)CC4)n3n2)n1` [Example 305, cis-6-(5-(4-hydroxycyclohexylamino)-[1,2,4]triazolo[1,5-a]pyridin-2-ylamino)pyridin-2-ol] fall in the same range of IC50: 1000 to 10000 nM for the first, 1000 to 10000 nM for the second.

`FC(F)(F)c1ccc(Nc2nc3cccc(O[C@H]4CCCNC4)n3n2)cc1` [Example 362, (S)-5-(piperidin-3-yloxy)-N-(4-(trifluoromethyl)phenyl)-[1,2,4]triazolo[1,5-a]pyridin-2-amine] and `OC1CCCC[C@H]1Nc1cccc2nc(Nc3ccc(C(F)(F)F)cc3)nn12` (stereo in doubt) [Example 270, (1S,2R)-2-(2-(4-(trifluoromethyl)phenylamino)-[1,2,4]triazolo[1,5-a]pyridin-5-ylamino)cyclohexanol] fall in the same range of IC50: 1000 to 10000 nM for the first, 1000 to 10000 nM for the second.

First: O=C1CN(Cc2cccc3nc(Nc4ccc(C(F)(F)F)cc4)nn23)C(=O)N1 [Example 252, 1-((2-(4-(trifluoromethyl)phenylamino)-[1,2,4]triazolo[1,5-a]pyridin-5-yl)methyl)imidazolidine-2,4-dione]
Second: NC(=O)CNCc1cccc2nc(Nc3ccc(C(F)(F)F)cc3)nn12 [Example 290, 2-((2-(4-(trifluoromethyl)phenylamino)-[1,2,4]triazolo[1,5-a]pyridin-5-yl)methylamino)acetamide]
The IC50 of the first is higher: 1000 to 10000 nM for the first, 0.005 to 250 nM for the second. The second is the more potent here.

`Cc1n[nH]c2cc(Nc3nc4cccc(N[C@H]5CC[C@@H](O)CC5)n4n3)ccc12` [Example 351, cis-4-(2-(3-methyl-1H-indazol-6-ylamino)-[1,2,4]triazolo[1,5-a]pyridin-5-ylamino)cyclohexanol] and `Cc1ccc(Nc2nc3cccc(N[C@H]4CC[C@@H](O)CC4)n3n2)cc1` [Example 343, cis-4-(2-(p-tolylamino)-[1,2,4]triazolo[1,5-a]pyridin-5-ylamino)cyclohexanol] fall in the same range of IC50: 0.005 to 250 nM for the first, 0.005 to 250 nM for the second.

Compared with `OC[C@@H]1CCN(c2cccc3nc(Nc4ccc(C(F)(F)F)cc4)nn23)C1` [Example 326, (R)-(1-(2-(4-(trifluoromethyl)phenylamino)-[1,2,4]triazolo[1,5-a]pyridin-5-yl)pyrrolidin-3-yl)methanol], `CNC(=O)c1ccc(Nc2nc3cccc(N[C@H]4CC[C@@H](N)CC4)n3n2)cc1` [Example 360, 4-(5-(cis-4-aminocyclohexylamino)-[1,2,4]triazolo[1,5-a]pyridin-2-ylamino)-N-methylbenzamide] is higher in IC50: 250 to 500 nM for the first, 500 to 1000 nM for the second.

`O=C1NCCc2cc(Nc3nc4cccc(N[C@H]5CC[C@@H](O)CC5)n4n3)ccc21` [Example 203, cis-6-(5-(4-hydroxycyclohexylamino)-[1,2,4]triazolo[1,5-a]pyridin-2-ylamino)-3,4-dihydroisoquinolin-1(2H)-one] and `Cc1cc(Nc2nc3cccc(N[C@H]4CC[C@@H](O)CC4)n3n2)cc(C)c1F` [Example 279, cis-4-(2-(4-fluoro-3,5-dimethylphenylamino)-[1,2,4]triazolo[1,5-a]pyridin-5-ylamino)cyclohexanol] fall in the same range of IC50: 0.005 to 250 nM for the first, 0.005 to 250 nM for the second.

Same assay, conditions: read-out: Activity Level (Syk HTRF assay IC50)

`Cn1cnc2ccc(Nc3nc4cccc(-c5cccc(F)c5)n4n3)cc21` [compound 4] and `Fc1cccc(-c2cccc3nc(Nc4ccc5[nH]ncc5c4)nn23)c1` [compound 2, 5-(3-fluorophenyl)-N-(1H-indazol-5-yl)-[1,2,4]triazolo[1,5-a]pyridin-2-amine] fall in the same range of IC50: 0.005 to 250 nM for the first, 0.005 to 250 nM for the second.

`c1ccc(-c2cccc3nc(Nc4ccc5oncc5c4)nn23)cc1` [compound 43, N-(5-phenyl-[1,2,4]triazolo[1,5-a]pyridin-2-yl)benzo[d]isoxazol-5-amine] and `Cn1ncc2ccc(Nc3nc4cccc(-c5ccccc5)n4n3)cc21` [compound 54, N-(1-methyl-1H-indazol-6-yl)-5-phenyl-[1,2,4]triazolo[1,5-a]pyridin-2-amine] fall in the same range of IC50: 0.005 to 250 nM for the first, 0.005 to 250 nM for the second.

`Cc1cc(Nc2nc3cccc(NC4CCOCC4)n3n2)cc2c1cnn2C` [Example 148, N^2-(1,4-dimethyl-1H-indazol-6-yl)-N^5-(tetrahydro-2H-pyran-4-yl)-[1,2,4]triazolo[1,5-a]pyridin-2,5-diamine] and `Cn1ncc2ccc(Nc3nc4cccc(CC5CCOCC5)n4n3)cc21` [Example 160, N-(1-methyl-1H-indazol-6-yl)-5-((tetrahydro-2H-pyran-4-yl)methyl)-[1,2,4]triazolo[1,5-a]pyridin-2-amine] fall in the same range of IC50: 0.005 to 250 nM for the first, 0.005 to 250 nM for the second.

`Cc1n[nH]c2cc(Nc3nc4cccc(NC[C@@H]5CCC(O)C5)n4n3)ccc12` (stereo in doubt) [Example 179, (1R,3R)-3-((2-(3-methyl-1H-indazol-6-ylamino)-[1,2,4]triazolo[1,5-a]pyridin-5-ylamino)methyl)cyclopentanol] and `CN1C(=O)C(C)(C)c2ccc(Nc3nc4cccc(N[C@H]5CC[C@H](O)CC5)n4n3)cc21` (stereo in doubt) [Example 146, trans-6-(5-(4-hydroxycyclohexylamino)-[1,2,4]triazolo[1,5-a]pyridin-2-ylamino)-1,3,3-trimethylindolin-2-one] fall in the same range of IC50: 0.005 to 250 nM for the first, 0.005 to 250 nM for the second.

Compared with `N#Cc1cccc(Nc2nc3cccc(-c4ccccc4)n3n2)c1` [compound 66, 3-(5-phenyl-[1,2,4]triazolo[1,5-a]pyridin-2-ylamino)benzonitrile], `CNC(=O)c1ccc(Nc2nc3cccc(-c4cccc(Cl)c4)n3n2)cc1` [compound 13, 4-(5-(3-chlorophenyl)-[1,2,4]triazolo[1,5-a]pyridin-2-ylamino)-N-methylbenzamide] is lower in IC50: 1000 to 10000 nM for the first, 0.005 to 250 nM for the second.

For `CN(C)Cc1nc2ccc(Nc3nc4cccc(-c5cccc(F)c5)n4n3)cc2[nH]1` [compound 1, N-(2-((dimethylamino)methyl)-1H-benzo[d]imidazol-6-yl)-5-(3-fluorophenyl)-[1,2,4]triazolo[1,5-a]pyridin-2-amine], the IC50 was 0.005 to 250 nM.
